Source: US12448393B2, “Use of novel compound, for preventing, improving or treating amyotrophic lateral sclerosis” (PRG S&TECH INC., priority 2019, dated 2025)
Entries after “also recorded” stand apart in the source; their conditions may differ.

Columns and labels:
SOD1 [1] = target: T1, SOD1 (Homo sapiens, UniProt P00441); test: Immunofluorescence staining of SOD1 aggregation and misfolded SOD1; format: cell-based
Procedure: (§1) Cells on coverslip were washed with PBS, fixed with 4% PFA at room temperature for 30 minutes, and then infiltrated with 0.1% Triton X-100/PBS for 10 minutes. The cells were treated with blocking solution (anti-Human Antibody 1:500 dilution in PBS) for 1 hour, and then cells were reacted with anti-pan SOD1 (1:400 dilution), misfolded SOD1 (B8H10; 1:200 dilution in blocking solution) at 4° C. overnight. Finally, the cells were reacted with FITC and rhodamine-conjugated secondary antibody at 4° C. for 6 hours. Nuclei were stained with 4,6-diamidino-2-phenylindole (DAPI), and endoplasmic reticula (ERs) were stained with ER-Tracker Red dye for 10 minutes. The cells were washed 3 times with PBS, and then coverslips were mounted with mounting solution [H-5501; Vector Laboratories (Burlingame, CA, USA)] and analyzed by fluorescence microscopy (Zeiss).
(§2) GFP-SOD1 (WT, G85R, G93A), non-tagged SOD1 (WT, A4V, G37R, G85R, G93A) and tdTomato-TDP43 expression vectors were purchased from Addgene (Cambridge, MA, USA). Transfection was performed using Jet-PEI reagent (JetPEI; Polyplus transfection, New York, NY, USA) according to the manufacturer's protocol. Briefly, vectors were mixed with JetPEI reagent in 150 mM NaCl buffer, and then mixture was reacted for 15 minutes. The mixture was added to cells in serum-free medium and reacted for 4 hours. After reaction, the cells were replaced with a culture medium supplemented with 10% FBS.

SOD1 [2] = test: as above; format: cell-based, human; conditions: Table 1; IF staining of SOD1
Procedure: as §1, §2

normal human fibroblasts = test: Cell viability measurement (MTT), normal fibroblasts; format: cell-based; conditions: for cytotoxic effect in normal fibroblasts: MTT, FIG. 4E, FIG. 9B
Procedure: HEK293 cells were purchased from American Type Culture Collection (ATCC, Manassas, VA, USA) and maintained at 37° C. and 5% CO2 in DMEM liquid medium including 10% fetal bovine serum and 1% penicillin-streptomycin. SK—N—SH cells were purchased from Korean Cell Line Bank (KCLB, Seoul, South Korea) and maintained in MEM medium including 10% fetal bovine serum, 1% antibiotic, 25 mM HEPES, and 300 mg/L L-Glu. Human fibroblasts (person) were purchased from Coriell Cell Repositories (New Jersey, USA) and maintained in EMEM including 15% FBS, 2 mM Glutamine, and 26 mM HEPES without antibiotics. Thapsigargin (ER calcium scavenger: CAS 67526-95-8) was purchased from Calbiochem (Darmstadt, Germany). CoCl2 (hypoxia-inducer: C8661) was purchased from Sigma Aldrich (St, Louis, Mo, USA).
To check cells viability, the cells were reacted with 0.5 mg/ml MTT solution (475989; Merck, Darmstadt, Germany) at 37° C. for 4 hours. After removing residual solution and washing with PBS, precipitate was dissolved in 200 μl DMSO, and quantified by measuring absorbance at 540 nm.

[3] = Pharmacokinetics (PK) analysis; format: in vivo; conditions: FIG. 8E
[4] = tested on: WT-SOD1 and mutant SOD1-GST (A4V, G37R, G85R, G93A); test: ELISA compound screening for binding inhibitor between WT-SOD1 and mutant SOD1; set-up: species or system human
Procedure: For compound screening, the present inventors applied an ELISA assay system. To select a binding inhibitor between WT-SOD1 and mutant SOD1, the present inventors used 0.5% paraformaldehyde (PFA) to fix WT-SOD1 recombinant protein on a 96-well plate. The plate was dried, washed with phosphate-buffered saline (PBS), and reacted with the compounds at a final concentration of 50 μM, and then mutant SOD1-GST (A4V, G37R, G85R, G93A) proteins were added. After 2 hours of reaction, the 96-well plate was washed with PBS and blocked with 3% skim milk to prevent non specific reaction. The plate was reacted with anti-GST antibody (diluted at 1:10,000) for 1 hour, and then reacted with anti-mouse IgG-HRP (diluted at 1:50,000) for 1 hour. After washing twice, the plate was reacted with a 3,3′,5,5′-tetramethylbenzidine (TMB) solution (Calbiochem) for 30 minutes and a stop solution (1N H2SO4) for 30 minutes. Finally, the present inventors analyzed values using an ELISA reader (450 nm absorbance). Negative control (−; red line) was reacted without mutant SOD1, and positive control (+; blue line) was reacted with mutant SOD1 without the compounds.
To prepare recombinant proteins, human SOD1 (WT, A4V, G37R, G85R, G93A) was added to EcoRI and HindIII sites of pGEX-TEV vector, an improved vector made by adding a TEV protease cleavage site to pGEX-4T1 (Invitrogen). The recombinant proteins were expressed as GST-fusion proteins in Escherichia coli (E. coli) strain BL21 (DE3). The proteins were purified by glutathione-affinity chromatography.

SOD1^G93A-Tg mice = test: In vivo drug treatment of ALS model mice (grip strength, behaviour, histology, survival); set-up: species or system mouse; conditions: dosing from 14 weeks, observed at 17-weeks of age; FIGS. 7C and 8C
SOD1 [5] = target: T1, SOD1; test: Western blot / native gel analysis of SOD1 aggregation; format: cell-based
Procedure: (§3) Using RIPA buffer (50 mM Tris-Cl, pH 7.5, 150 mM NaCl, 1% NP-40, 0.1% SDS and […]) for SDS-PAGE and lysis buffer (50 mM Tris-Cl, pH 7.5, 150 mM NaCl, 0.3% NP-40) for Native-PAGE, proteins were extracted from cells. Samples were separated by the SDS-PAGE or the Native-PAGE and transferred to PVDF membrane. Blotted membrane was blocked with TBST buffer including 3% skim milk for 1 hour, and reacted with specific antibodies. The reacted antibodies were detected by ECL and X-ray film exposure. Antibodies used in the present disclosure are as follows: pan-SOD1 (GTX100554) was purchased from Genetex (California, USA). Misfolded SOD1-specific antibody (B8H10) was purchased from MediMabs (Montreal, Canada). Actin (sc-1616), GST (sc-138), and GFP (Green fluorescent protein; sc-8036) were purchased from Santa Cruz biotechnology (Santa Cruz, CA, USA). TDP-43 antibody (10782-2-AP) was purchased from Proteintech (Rosemont, IL, USA). Anti-FLAG (Sigma; F3165) was purchased from Sigma Aldrich (St, Louis, Mo, USA), and HRP-conjugated goat anti-mouse, goat anti-rabbit, and mouse anti-goat antibodies (Pierce, Thermo Fisher Scientific, Inc., Rockford, IL, USA) were used as secondary antibodies.
as §2

SOD1 [6] = test: as above; format: cell-based, human; conditions: for mutant SOD1 aggregation: FIGS. 3B and 3C
Procedure: as §3, §2

T1 sequence (P00441 2-154): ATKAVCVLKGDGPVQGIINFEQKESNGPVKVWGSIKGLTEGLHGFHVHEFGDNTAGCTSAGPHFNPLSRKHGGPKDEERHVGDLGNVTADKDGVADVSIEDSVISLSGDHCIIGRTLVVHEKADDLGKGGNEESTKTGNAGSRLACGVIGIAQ

time to disappearance in body / blood [3]: ≤ 30 min
ELISA ([4]; Table 1, compounds at final concentration of 50 μM): Effect ○
binding inhibition in ELISA compound screening ([4]; WT-SOD1 fixed on plate, GST-tagged mutant SOD1s, FIG. 3A): specific for mutation
SOD1 aggregation and TDP43 aggregation, native gel analysis (SOD1 [5]; TDP-43 overexpression, FIG. 5B): reduced; also recorded: decreased
SMILES: COc1cc(/C=C/C(=O)O[C@H]2Cc3cc4ccc(=O)oc4cc3OC2(C)C)ccc1O [PRG-A-01, (S)-8,8-dimethyl-2-oxo-7,8-dihydro-2H,6H-pyrano[3,2-g]chromen-7-yl (E)-3-(4-hydroxy-3-methoxyphenyl) acrylate]
misfolded SOD1 / SOD1 aggregation induced by hypoxic stress (SOD1 [1]; CoCl2, FIG. 6C): blocks SOD1 aggregation induced by hypoxic stress; also recorded: reduced
SOD1 aggregation induced by TDP-43 overexpression, immunofluorescence (SOD1 [1]; FIG. 5A): inhibited; also recorded: reduce the SOD1 aggregation as well as TDP-43
Immuno-fluorscence (SOD1 [2]): Effect ○
cytotoxic effect in normal fibroblasts (normal human fibroblasts): not cytotoxic
cytotoxic effect in normal fibroblasts (normal human fibroblasts; listed as SLC-B036): did not exhibit cytotoxic effect
Toxicity (MTT) (normal human fibroblasts; Table 1, cell type not given, neurons (FIG. 9A) and normal fibroblasts (FIG. 9B)): No
motor capacity, behavioral observation (SOD1^G93A-Tg mice): still had motor capacity
multimer bands of SOD1 and TDP-43, cross-linking experiment (SOD1 [5]; glutaraldehyde cross-linking, FIG. 5C): blocks multimer formation of SOD1; also recorded: weakened
mutant SOD1 aggregation (SOD1 [6]): inhibits SOD1 aggregation
mutant SOD1 aggregation (SOD1 [6]; listed as SLC-B036): blocking mutant SOD1 aggregation in a dose-dependent manner
Western Blot (SOD1 [6]; Table 1, effect on SOD1 aggregation, native / non-SDS-PAGE gel): Effect ○
